According to PMC12508063, “Chloroindazole based estrogen receptor β ligands with favorable pharmacokinetics promote functional remyelination and visual recovery” (Scientific Reports, 2025):
Like-named read-outs stand apart in the source and are kept apart here.

Legend:
[1] = Liver microsome stability (human)
[2] = Oral PK of K102 at 40 mg/kg in female monkeys; format: in vivo, cynomolgus monkey; conditions: female monkey, PO 40 mg/kg, mean
[3] = Oral PK of K102 at 40 mg/kg in female mice; format: in vivo, C57BL/6 mouse; conditions: female mouse, PO 40 mg/kg, mean
CYP2D6 = CYP2D6 (Homo sapiens, UniProt P10635); experiment: CYP inhibition; conditions: test compounds at 10 μM; substrate Dextromethorphan
CYP2D6, sequence (P10635 whole entry): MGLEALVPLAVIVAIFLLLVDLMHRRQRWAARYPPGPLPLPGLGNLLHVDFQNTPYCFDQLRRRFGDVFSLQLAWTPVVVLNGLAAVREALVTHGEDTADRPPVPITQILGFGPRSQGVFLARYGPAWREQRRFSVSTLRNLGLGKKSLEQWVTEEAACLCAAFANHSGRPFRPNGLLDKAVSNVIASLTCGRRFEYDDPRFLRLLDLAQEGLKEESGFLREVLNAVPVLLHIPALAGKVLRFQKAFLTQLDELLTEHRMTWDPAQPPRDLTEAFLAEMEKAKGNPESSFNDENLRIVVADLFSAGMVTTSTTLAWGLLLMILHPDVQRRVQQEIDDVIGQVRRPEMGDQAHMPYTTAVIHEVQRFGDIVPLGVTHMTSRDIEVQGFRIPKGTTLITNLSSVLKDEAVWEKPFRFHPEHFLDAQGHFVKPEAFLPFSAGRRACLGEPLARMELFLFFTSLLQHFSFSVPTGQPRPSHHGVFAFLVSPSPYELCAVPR

[4] = Hepatocyte stability (mouse)
EAE mice = experiment: Optical coherence tomography (RNFL thickness) in EAE; format: in vivo, mouse; conditions: vs EAE + V
Description: Optical coherence tomography, electroretinograms and visual evoked potentials: OCT was acquired using the spectral domain‐OCT (R2200 840 nm HHP; Leica, Deerfield, IL) at peak EAE disease according to previously published methods[23],[28]. Each image was taken 3 times and averaged. Automatic segmentation of retinal layers was performed using Bioptigen Diver 3.0 software (Leica Microsystems, Deerfield, IL). ERG and VEPs were measured using the HMsERG200 ([…], Henderson, NV) as previously described[23],[28]. Animals were dark adapted for a minimum of 5 h prior to recording. During acquisition, animals were anesthetized with continuous 2% isoflurane. Traces were averaged and filtered for 60 Hz noise and a low-pass filter. MATLAB was used to adjust baselines and smoothed prior to measuring ERG and VEP amplitudes and latencies.
Optical coherence tomography: OCT was acquired using the spectral domain‐OCT (R2200 840 nm HHP; Leica, Deerfield, IL) at peak EAE disease according to previously published methods(8, 9). Each image was taken 3 times and averaged. Automatic segmentation of retinal layers was performed using Bioptigen Diver 3.0 software (Leica Microsystems, Deerfield, IL).

CYP1A2 = CYP1A2 (Homo sapiens, UniProt P05177); experiment: CYP inhibition; conditions: test compounds at 10 μM; substrate Phenacetin
CYP1A2, sequence (P05177 whole entry): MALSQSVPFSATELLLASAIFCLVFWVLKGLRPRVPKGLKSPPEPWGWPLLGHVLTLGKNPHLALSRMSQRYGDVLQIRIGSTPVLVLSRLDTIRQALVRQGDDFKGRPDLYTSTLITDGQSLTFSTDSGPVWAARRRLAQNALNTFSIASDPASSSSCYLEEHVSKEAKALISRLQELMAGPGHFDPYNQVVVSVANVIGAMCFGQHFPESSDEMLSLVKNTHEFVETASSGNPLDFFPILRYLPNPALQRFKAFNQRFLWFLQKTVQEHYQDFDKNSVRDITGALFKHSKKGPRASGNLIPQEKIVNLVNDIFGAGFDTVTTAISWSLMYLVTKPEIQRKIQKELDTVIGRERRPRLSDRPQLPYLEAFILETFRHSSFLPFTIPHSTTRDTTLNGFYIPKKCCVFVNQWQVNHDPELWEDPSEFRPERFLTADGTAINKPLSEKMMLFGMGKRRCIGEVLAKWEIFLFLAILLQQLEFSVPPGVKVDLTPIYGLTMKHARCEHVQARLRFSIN

[5] = Oral PK of K102 at 40 mg/kg in female rats; format: in vivo, Sprague–Dawley rat; conditions: female rat, PO 40 mg/kg, mean
CYP2C19 = CYP2C19 (Homo sapiens, UniProt P33261); experiment: CYP inhibition; conditions: test compounds at 10 μM; substrate Mephenytoin
CYP2C19, sequence (P33261 whole entry): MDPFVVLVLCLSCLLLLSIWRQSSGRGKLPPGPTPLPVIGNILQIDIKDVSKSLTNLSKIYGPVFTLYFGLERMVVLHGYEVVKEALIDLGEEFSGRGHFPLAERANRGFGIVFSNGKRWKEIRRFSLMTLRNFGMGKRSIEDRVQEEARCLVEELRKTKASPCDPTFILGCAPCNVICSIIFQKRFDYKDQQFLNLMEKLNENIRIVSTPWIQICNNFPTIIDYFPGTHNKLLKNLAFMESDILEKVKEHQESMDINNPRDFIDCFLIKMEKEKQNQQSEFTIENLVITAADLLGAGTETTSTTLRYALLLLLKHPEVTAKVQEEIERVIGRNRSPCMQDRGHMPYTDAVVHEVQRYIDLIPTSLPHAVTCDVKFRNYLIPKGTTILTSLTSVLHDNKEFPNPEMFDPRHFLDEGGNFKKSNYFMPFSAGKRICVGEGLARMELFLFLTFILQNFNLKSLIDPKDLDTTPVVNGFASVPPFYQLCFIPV

[6] = hepatocytes
[7] = microsomes
[8] = plasma
EAE mice retina = experiment: Retina IHC in EAE; format: in vivo, mouse
Description: Animal Perfusions, tissue preparation, and IHC: Mice were deeply anesthetized and euthanized with isoflurane and intracardially perfused with ice‐cold PBS followed by 10% formalin in PBS (Fisher Scientific, Hampton, NH). Eyes, optic nerves, and brain were collected and processed for IHC as previously described[23],[28]. Antibody details are listed in Supplementary Table S6.
Imaging and Quantification: Retina, optic nerve, and brain sections were imaged using an Olympus BX61 spinning disk confocal microscope with 10× and 40× objectives[23],[28]. Z-stack images were captured and processed using Slidebook 6 and cellSense software. Immunofluorescence intensity and cell counts were quantified using NIH ImageJ, and statistical analysis was performed with GraphPad Prism.
RGC degeneration and pronounced GFAP immunoreactivity is evident in both MS and EAE[23],[28],[35],[36]. To quantify the number of RGCs, neuronal nuclear marker (NeuN) was used. […]
Imaging and Quantification: Retina, optic nerve, and brain sections were imaged using an Olympus BX61 spinning disk confocal microscope equipped with 10x and 40x Super Apochromat objectives (Olympus America Inc., Cypress, CA) connected to a camera (Hamamatsu Orca‐R2). […] Immunofluorescence intensity and cell numbers were assessed with NIH ImageJ software (v1. 50i http://rsb.info.nih.gov/ij/) and quantified. […]

[9] = tested on: 1A2, 2B6, 2C9, 2C19, 2D6, and 3A4M/T; experiment: CYP inhibition panel summary; format: in vitro ADME, human; conditions: 10 µM
[10] = microsomes; remark: listed apart in the source
CYP2C9 = CYP2C9 (Homo sapiens, UniProt P11712); conditions: 10 µM
CYP2C9, sequence (P11712 whole entry): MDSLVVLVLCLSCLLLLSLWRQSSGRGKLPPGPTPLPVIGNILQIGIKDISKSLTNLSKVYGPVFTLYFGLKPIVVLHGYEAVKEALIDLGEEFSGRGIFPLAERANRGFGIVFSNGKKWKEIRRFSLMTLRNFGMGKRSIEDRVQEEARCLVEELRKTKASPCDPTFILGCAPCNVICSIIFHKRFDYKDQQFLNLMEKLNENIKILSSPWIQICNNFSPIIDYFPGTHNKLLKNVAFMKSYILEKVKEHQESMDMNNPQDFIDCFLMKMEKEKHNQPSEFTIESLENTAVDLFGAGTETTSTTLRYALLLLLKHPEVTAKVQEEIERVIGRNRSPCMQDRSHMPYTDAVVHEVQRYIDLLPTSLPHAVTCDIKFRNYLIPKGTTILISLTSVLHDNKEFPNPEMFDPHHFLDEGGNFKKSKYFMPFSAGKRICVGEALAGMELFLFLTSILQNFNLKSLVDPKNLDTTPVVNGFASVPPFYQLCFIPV

[11] = mouse, in vivo
Description: Mice were dosed intravenously at 5 mg/kg, subcutaneously at 10 mg/kg, and orally at 25 mg/kg.
Only values above the LLOQ.(0.3 ng/mL) were plotted.

CYP3A4 = CYP3A4 (Homo sapiens, UniProt P08684); conditions: 10 µM
CYP3A4, sequence (P08684 whole entry): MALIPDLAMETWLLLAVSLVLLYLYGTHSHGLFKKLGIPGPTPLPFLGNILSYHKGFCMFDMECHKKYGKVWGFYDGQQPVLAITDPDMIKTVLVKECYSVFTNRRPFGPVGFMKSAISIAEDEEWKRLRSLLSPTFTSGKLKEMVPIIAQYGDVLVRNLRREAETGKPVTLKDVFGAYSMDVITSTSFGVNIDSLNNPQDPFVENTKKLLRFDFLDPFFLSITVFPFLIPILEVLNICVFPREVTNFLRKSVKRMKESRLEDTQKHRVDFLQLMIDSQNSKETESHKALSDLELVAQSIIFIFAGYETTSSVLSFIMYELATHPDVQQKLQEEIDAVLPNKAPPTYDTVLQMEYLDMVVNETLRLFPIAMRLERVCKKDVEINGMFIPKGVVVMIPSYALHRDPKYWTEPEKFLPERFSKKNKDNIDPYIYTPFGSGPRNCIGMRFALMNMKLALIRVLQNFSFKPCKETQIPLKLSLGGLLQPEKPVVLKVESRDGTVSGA

[12] = plasma; remark: listed apart in the source

Compound: Cc1cc(O)ccc1-n1nc2ccc(O)cc2c1Cl [Compound K102, IndCl-o-Me]
- Liver Microsome Stability (Human) % Remaining (30 min) ([1]; 30 min): 78.03%
- Liver Microsome Stability (Human) CLint ([1]; human, microsomes): 8.47 µL/min/mg protein
- AUCInf/D [2]: 59.3 kg·ng·h/mL/mg
- AUClast [2]: 2373.0 ng·h/mL
- Cmax [2]: 355.3 ng/mL
- Tmax [2]: 79.8 min
- AUCExtr [3]: 13.0%
- AUCInf [3]: 855 ng·h/mL
- AUCInf/D [3]: 21.4 kg·ng·h/mL/mg
- AUClast [3]: 748 ng·h/mL
- Cmax [3]: 945 ng/mL
- MRTInf [3]: 248 min
- Tmax [3]: 15 min
- t1/2 [3]: 256 min
- CYP Inhibition Percentage CYP2D6 (CYP2D6): 18.26%
- Hepatocyte Stability (Mouse) CLint [4]: 86.57 µL/min/mg protein
- Hepatocyte Stability (Mouse) t1/2 ([4]; mouse, hepatocytes): 16.01 min
- RNFL thickness (OCT) (EAE mice): prevented the significant reduction
- CYP Inhibition Percentage CYP1A2 (CYP1A2): 26.19%
- AUCInf/D [5]: 235.1 kg·ng·h/mL/mg
- AUClast [5]: 9403 ng·h/mL
- Cmax [5]: 1657 ng/mL
- Tmax [5]: 15 min
- CYP Inhibition Percentage CYP2C19 (CYP2C19): 50.50%

Compound: Oc1ccc(-n2nc3ccc(O)cc3c2Cl)c(O)c1 [Compound K110, IndCl-o-OH]
- Hepatocyte Stability (Human) CLint [6]: 12.69 µL/min/mg protein
- Hepatocyte Stability (Human) % Remaining (15 min) ([6]; 0.25 h): 87.14%
- Liver Microsome Stability (Human) CLint [7]: 13.64 µL/min/mg protein
- Liver Microsome Stability (Human) % Remaining (30 min) ([7]; 0.5 h): 66.88%
- Protein Binding (% Bound) Mouse [8]: 91.79%
- GFAP, mean value (EAE mice retina): 6.695
- NeuN (RGCs), mean value (EAE mice retina): 6.167
- CYP inhibition, all other isoforms of the panel [9]: < 50%
- Liver Microsome Stability (Mouse) CLint [10]: 35.28 µL/min/mg protein
- Liver Microsome Stability (Mouse) t1/2 [10]: 20.06 min
- Liver Microsome Stability (Mouse) % Remaining (30 min) ([10]; 0.5 h): 35.72%
- CYP Inhibition Percentage CYP2C9 (CYP2C9): 18.49%
- Cl_obs ([11]; iv, 5 mg/kg): 158 mL/min/kg
- Kp AUC0-t (brain/plasma) ([11]; iv, 5 mg/kg): 0.37
- Kp AUClast (brain/plasma) ([11]; iv, 5 mg/kg): 0.37
- Vss_obs ([11]; iv, 5 mg/kg): 2.23 L/kg
- AUCinf brain ([11]; po, 25 mg/kg): 354 ng·h/g
- AUCinf plasma ([11]; po, 25 mg/kg): 780 ng·h/mL
- Brain/Plasma Ratio(%) ([11]; po, 25 mg/kg): 46%
- Kp AUC0-t (brain/plasma) ([11]; po, 25 mg/kg): 0.46
- Kp AUClast (brain/plasma) ([11]; po, 25 mg/kg): 0.41
- AUCinf brain ([11]; sc, 10 mg/kg): 303 ng·h/g
- AUCinf plasma ([11]; sc, 10 mg/kg): 1403 ng·h/mL
- Brain/Plasma Ratio(%) ([11]; sc, 10 mg/kg): 22%
- F (Bioavailability) ([11]; sc, 10 mg/kg): 133%
- Kp AUC0-t (brain/plasma) ([11]; sc, 10 mg/kg): 0.22
- Kp AUClast (brain/plasma) ([11]; sc, 10 mg/kg): 0.20
- CYP Inhibition Percentage CYP3A4-T (CYP3A4): 45.13%
- Protein Binding (% Bound) Human [12]: 93.27%
